{"source": "patent US7622269B2", "about": "“Methods of screening tyramine- and octopamine-expressing cells for compounds and compositions having potential insect control activity” (Tyratech, Inc., priority 2004, dated 2009)", "key": {"[1]": {"test_system": "control HEK-293 cells", "assay": "cAMP levels in control HEK-293 cells transfected with pCDNA3 without insert", "format": "cell-based, human", "procedure": "(§1) Twenty-four hours before cell treatment, about 300,000 HEK-293 cells are plated in about 1 ml media with about 0.8 mg G418/ml into multi-well dishes (e.g., 12-well, 4.5 cm^2). For cell treatment, the media is aspirated and about 1 ml PBS with about 300 μM IBMX and the test reagent is added. […] Cells are incubated with about 70% ethanol for about 1 h at about −20° C. The cellular debris is centrifuged and then the supernatant is removed and lyophilized to dryness. The amount of cAMP in the extract is determined by using a cAMP binding protein from the ^3H-cAMP Biotrak assay system (Amersham Biosciences) as per the manufacturer's instructions. To test the effects of calcium chelation on cAMP levels, the cells are incubated with about […] BAPTA/AM (Calbiochem Biochemicals, La Jolla, Calif.) for about 10 min before the addition of the test reagents.\nTo determine which second messenger signaling pathways octopamine could affect through the Pa oa1 receptor, HEK-293 cells are stably transfected with pCDNA3-Pa oa1 or pCDNA3 without an insert as a control."}, "[2]": {"target": "T1, OAMB (Drosophila melanogaster, UniProt Q7JQF1, L268I/L487I/L521I/T180I)", "T1 sequence (Q7JQF1 other isoform, or with tags, fused parts or gaps T180I/L268I/L487I/L524I)": "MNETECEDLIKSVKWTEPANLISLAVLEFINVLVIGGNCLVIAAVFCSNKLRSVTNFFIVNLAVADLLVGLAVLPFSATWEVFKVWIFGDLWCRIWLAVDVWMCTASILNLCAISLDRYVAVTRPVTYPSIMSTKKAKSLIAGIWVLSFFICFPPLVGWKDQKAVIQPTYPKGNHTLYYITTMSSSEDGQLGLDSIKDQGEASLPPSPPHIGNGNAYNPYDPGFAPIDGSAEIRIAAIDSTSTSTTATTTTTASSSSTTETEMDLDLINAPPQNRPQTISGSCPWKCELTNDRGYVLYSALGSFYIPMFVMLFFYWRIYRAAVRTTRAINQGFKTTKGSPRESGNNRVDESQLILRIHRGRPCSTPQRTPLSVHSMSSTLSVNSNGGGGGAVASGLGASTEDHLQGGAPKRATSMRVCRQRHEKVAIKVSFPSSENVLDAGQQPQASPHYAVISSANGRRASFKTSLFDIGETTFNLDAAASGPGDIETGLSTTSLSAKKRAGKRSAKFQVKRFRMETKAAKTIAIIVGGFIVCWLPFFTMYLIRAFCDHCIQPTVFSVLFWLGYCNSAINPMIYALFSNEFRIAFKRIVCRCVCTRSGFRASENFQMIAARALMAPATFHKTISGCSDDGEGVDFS", "assay": "Intracellular calcium (Fura-2) in HEK-293 cells expressing OAMB", "conditions": "10 μM", "experimental": "Cells are collected by scraping and are suspended at about 750,000 cells/ml in HBSS with about 5 μM Fura-2 AM (Sigma-Aldrich)."}, "[3]": {"target": "T1, OAMB", "assay": "cAMP levels in HEK-293 cells expressing OAMB", "format": "cell-based", "set-up": "Oligonucleotides designed to amplify the open reading frame of Drosophila melanogaster OAMB; expressed in transfected cells", "conditions": "10 μM", "procedure": "(§2) To determine cAMP levels in cells, about 24-hours before cell treatment, 300,000 HEK-293 cells are plated in 1 mL media with 0.8 mg G418/mL into multi-dishes (4.5 cm2). For cell treatment, the media is aspirated and 1 mL PBS with 300 μM IBMX and the test reagent is added. Cells are incubated at 37° C. for 20 min, and the PBS is then aspirated. Cells are incubated with 70% ethanol for 1 hour at −20° C. The cellular debris is centrifuged and then the supernatant is removed and lyophilized to dryness. The amount of cAMP in the extract is determined by using a cAMP binding protein from the ^3H-cAMP Biotrak assay system (Amersham Biosciences, Piscataway, N.J.) as per the manufacturer's instructions."}, "[4]": {"target": "T2, Pa oa1 (Periplaneta americana, UniProt Q7YWB7)", "T2 sequence (Q7YWB7 entry or part of it)": "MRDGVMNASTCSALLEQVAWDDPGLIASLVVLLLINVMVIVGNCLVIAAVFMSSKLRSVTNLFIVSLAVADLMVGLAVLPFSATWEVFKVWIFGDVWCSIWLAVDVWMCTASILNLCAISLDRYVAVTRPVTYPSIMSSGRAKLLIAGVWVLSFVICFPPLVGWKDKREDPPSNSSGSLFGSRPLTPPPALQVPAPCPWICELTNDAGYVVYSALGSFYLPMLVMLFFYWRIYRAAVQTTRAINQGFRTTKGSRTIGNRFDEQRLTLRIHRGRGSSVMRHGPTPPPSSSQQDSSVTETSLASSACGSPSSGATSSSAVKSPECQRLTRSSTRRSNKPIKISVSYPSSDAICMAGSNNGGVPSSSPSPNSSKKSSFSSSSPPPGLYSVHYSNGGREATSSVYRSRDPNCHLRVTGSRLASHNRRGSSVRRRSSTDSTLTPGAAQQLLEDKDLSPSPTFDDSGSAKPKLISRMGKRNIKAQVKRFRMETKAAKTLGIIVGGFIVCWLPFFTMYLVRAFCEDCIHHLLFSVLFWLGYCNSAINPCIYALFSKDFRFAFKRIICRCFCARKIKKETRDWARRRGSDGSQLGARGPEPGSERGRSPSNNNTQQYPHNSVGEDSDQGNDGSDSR", "assay": "Intracellular calcium (Fura-2) in HEK-293 cells expressing Pa oa1", "format": "cell-based"}, "[5]": {"target": "T2, Pa oa1", "assay": "cAMP levels in HEK-293 cells expressing Pa oa1", "format": "cell-based", "procedure": "as §1, §2"}, "[6]": {"target": "T2, Pa oa1", "assay": "Competitive binding against 3H-yohimbine, Pa oa1 membranes"}, "[7]": {"test_system": "control HEK-293 cells", "assay": "Intracellular calcium in control HEK-293 cells transfected with empty pCDNA3", "format": "cell-based, human"}, "[8]": {"target": "T1, OAMB", "assay": "biochemical", "format": "binding", "set-up": "Oligonucleotides designed to amplify the open reading frame of Drosophila melanogaster OAMB; expressed in transfected cells"}}, "note": "Several values for one entry are separate records, joined by “and”; a condition that tells them apart may be missing. Equal values may be shown once.", "data": [{"smiles": "NCC(O)c1ccc(O)cc1", "note": "(racemic) [Octopamine, DL-octopamine]", "values": [{"measurement": "changes in cAMP level", "setting": "[1]; 10 μM, empty vector", "result": "insignificant changes"}, {"measurement": "effect on cAMP levels", "setting": "[1]; up to about 100 μM", "result": "neither DL-octopamine nor tyramine at concentrations up to about 100 μM has significant effects on cAMP levels"}, {"measurement": "effect on level of [Ca2+]i", "setting": "[2]", "result": "increases the level [Ca^2+]i"}, {"measurement": "effect on level of cAMP", "setting": "[3]", "result": "increases the level of cAMP"}, {"measurement": "lowest concentration that increases intracellular calcium levels", "setting": "[4]", "result": "about 10 nM"}, {"measurement": "effect on level of [Ca2+]i", "setting": "[4]; 10 μM", "result": "increases the level [Ca^2+]i"}, {"measurement": "effect on intracellular calcium", "setting": "[4]; about 100 nM", "result": "a rapid increase in intracellular calcium is detected"}, {"measurement": "effect on level of cAMP", "setting": "[5]; 10 μM", "result": "increases the level of cAMP"}, {"measurement": "EC50", "setting": "[5]; 300 μM IBMX, read-out: EC50 for increase in cAMP", "result": "~1.62", "unit": "µM"}, {"measurement": "fold induction at 100 µM", "setting": "[5]; HEK293, 20 min, about 100 μM amine, read-out: increase in cAMP", "result": "~911"}, {"measurement": "cAMP concentration", "setting": "[5]; about 10 nM amine, basal about 0.48 pmol cAMP", "result": "about 1.2 pmol cAMP"}, {"measurement": "Ki", "setting": "[6]; Table B, 4 nM 3H-yohimbine", "result": 13.3, "unit": "µM"}, {"measurement": "Ki", "setting": "[6]; about 2 nM 3H-yohimbine", "result": "~13.3 µM and 13.3 µM"}, {"measurement": "affinity of octopamine higher than tyramine", "setting": "[6]; Pa oa1", "result": "about 2.3 fold"}, {"measurement": "changes in [Ca2+]", "setting": "[7]; 10 μM, empty vector", "result": "insignificant changes"}, {"measurement": "effect on intracellular calcium levels", "setting": "[7]; about 10 μM", "result": "Neither about 10 μM octopamine nor about 10 μM tyramine modulates intracellular calcium levels"}, {"measurement": "Ki", "setting": "[8]", "result": 8.2, "unit": "µM"}, {"measurement": "affinity of octopamine higher than tyramine", "setting": "[8]; OAMB", "result": "about 4.1 fold"}]}]}
